From US20220125913A1, “[…] PEPTIDES, AMINO-ACID SEQUENCES, AND COMPOSITIONS USEFUL FOR SARS-CoV-2 DETECTION AND COVID-19 PREVENTION” (priority 2020, published 2022)

System: SARS-CoV-2 circulation lineages in Colombia (B.1, B.1.111, B.1.111+E48K)
Settings: in vivo, sc

CGKDQVILLNKHIDAYKTFPPTGC [PHE-30]
sera neutralizing antibodies: detected

CGVLSFELLHAPATVSGPKKSTNGC [PHE-14]
sera neutralizing antibodies: detected

CGVTLAILTALRLSAYSSNIVGC [PHE-20]
sera neutralizing antibodies: detected
